Data on 4 compounds can be found in patent US8802597B2, “Herbicidal pyrimidines” (E I du Pont de Nemours and Company, priority 2003, dated 2014).

Like-named read-outs stand apart in the source and are kept apart here.

Common to all, as to assay: Test A pre/postemergence
Type in all cases: in vivo

Experiment [1] has as its system redroot pigweed (Amaranthus retroflexus). Conditions: for pest or weed control at 125 g/ha / pest or weed control at 500 g/ha: Amaranthus retroflexus, 240 h, read-out: Plant response rating, Pigweed. On the procedure:
(§1) Seeds of barnyardgrass (Echinochloa crus-galli), crabgrass (Digitaria sanguinalis), giant foxtail (Setaria faberi), morningglory (Ipomoea spp.), redroot pigweed (Amaranthus retroflexus) and velvetleaf (Abutilon theophrasti) were planted into a blend of loam soil and sand and treated preemergence with a directed soil spray using test chemicals formulated in a non-phytotoxic solvent mixture which included a surfactant. At the same time these species were also treated with postemergence applications of test chemicals formulated in the same manner.
(§2) Plants ranged in height from 2 to 10 cm and were in the 1- to 2-leaf stage for the postemergence treatment. Treated plants and untreated controls were maintained in a greenhouse for approximately ten days, after which time all treated plants were compared to untreated controls and visually evaluated for injury. Plant response ratings, summarized in Table A, are based on a 0 to 100 scale where 0 is no effect and 100 is complete control. A dash (-) response means no test results.

In experiment [2] the test system is giant foxtail (Setaria faberi). Conditions: for pest or weed control at 125 g/ha / pest or weed control at 500 g/ha: Setaria faberi, 240 h, read-out: Plant response rating, Foxtail, Giant. On the procedure: as §1, §2
For experiment [3], the system named is crabgrass (Digitaria sanguinalis). Conditions: for pest or weed control at 125 g/ha / pest or weed control at 500 g/ha: Digitaria sanguinalis, 240 h, read-out: Plant response rating, Crabgrass. How it is done:
as §1, §2

Experiment [4] concerns velvetleaf (Abutilon theophrasti). Conditions: for pest or weed control at 125 g/ha / pest or weed control at 500 g/ha: Abutilon theophrasti, 240 h, read-out: Plant response rating, Velvetleaf. How it is done: as §1, §2
Experiment [5] deals with barnyardgrass (Echinochloa crus-galli). As to conditions: for pest or weed control at 125 g/ha / pest or weed control at 500 g/ha: Echinochloa crus-galli, 240 h, read-out: Plant response rating, Barnyardgrass. How it is done: as §1, §2
Experiment [6] concerns morningglory (Ipomoea spp.). As to conditions: for pest or weed control at 125 g/ha / pest or weed control at 500 g/ha: Ipomoea, 240 h, read-out: Plant response rating, Morningglory. On the procedure:
as §1, §2

Where [7] appears, read: Postemergence, 125 g ai/ha, 0 to 100 scale (0 no effect, 100 complete control).
Setting [8] is: Postemergence, 500 g ai/ha, 0 to 100 scale (0 no effect, 100 complete control).
Setting [9] is: Preemergence, 125 g ai/ha, 0 to 100 scale where 0 is no effect and 100 is complete control, approximately ten days.
[10] abbreviates: Preemergence, 500 g ai/ha, 0 to 100 scale where 0 is no effect and 100 is complete control, approximately ten days.
[11] abbreviates: post-emergence, Postemergence, 125 g ai/ha, 0 to 100 scale (0 no effect, 100 complete control).
[12] abbreviates: post-emergence, Postemergence, 500 g ai/ha, 0 to 100 scale (0 no effect, 100 complete control).
The mark [13] stands for this setting: pre-emergence, Preemergence, 125 g ai/ha, 0 to 100 scale where 0 is no effect and 100 is complete control, approximately ten days.
[14] abbreviates: pre-emergence, Preemergence, 500 g ai/ha, 0 to 100 scale where 0 is no effect and 100 is complete control, approximately ten days.
[15] abbreviates: Postemergence, 2000 g ai/ha, 0 to 100 scale (0 no effect, 100 complete control).
The mark [16] stands for this setting: Preemergence, 2000 g ai/ha, 0 to 100 scale (0 no effect, 100 complete control).

Take `CCCOC(=O)c1nc(-c2ccc(Cl)cc2)nc(N)c1Cl` [Compound 105]: the “Plant response rating, Pigweed” value in experiment [1] (setting [7]) worked out at 65; in experiment [1] (setting [8]) it was 90; in experiment [1] (setting [9]) it was 0; in experiment [1] (setting [10]), 0. The “Plant response rating, Foxtail, Giant” value in experiment [2] (setting [7]) turned out to be 10; in experiment [2] (setting [8]), 10; in experiment [2] (setting [9]), 0; in experiment [2] (setting [10]), 0. Further, the “Plant response rating, Crabgrass” value in experiment [3] (setting [7]) is recorded as 20; in experiment [3] (setting [8]) it was 45; in experiment [3] (setting [9]), 0; in experiment [3] (setting [10]) it was 0. For the same compound, the “Plant response rating, Velvetleaf” value in experiment [4] (setting [7]) came to 85; in experiment [4] (setting [8]), 95; in experiment [4] (setting [9]), 0; in experiment [4] (setting [10]), 0. Further, the “Plant response rating, Barnyardgrass” value in experiment [5] (setting [7]) worked out at 10; in experiment [5] (setting [8]), 25; in experiment [5] (setting [9]) it was 0; in experiment [5] (setting [10]), 0. Further, the “Plant response rating, Morningglory” value in experiment [6] (setting [7]) stood at 50; in experiment [6] (setting [8]), 70; in experiment [6] (setting [9]), 0; in experiment [6] (setting [10]), 0.

Consider `CNC(=O)c1nc(C2CC2)nc(N)c1Cl` [Compound 81], for which the pest or weed control at 125 g/ha in experiment [1] (setting [11]) came to 55%; in experiment [1] (setting [13]), 60%; in experiment [2] (setting [11]), 0%; in experiment [2] (setting [13]) it was 0%; in experiment [3] (setting [11]), 0%; in experiment [3] (setting [13]) it was 0%. For the same compound, the pest or weed control at 125 g/ha in experiment [4] (setting [11]) was found to be 50%; in experiment [4] (setting [13]), 20%; in experiment [5] (setting [11]), 0%; in experiment [5] (setting [13]), 10%; in experiment [6] (setting [11]), 50%; in experiment [6] (setting [13]) it was 0%. In addition, the pest or weed control at 500 g/ha in experiment [1] (setting [12]) was found to be 75%; in experiment [1] (setting [14]), 70%; in experiment [2] (setting [12]), 30%; in experiment [2] (setting [14]), 10%; in experiment [3] (setting [12]) it was 10%; in experiment [3] (setting [14]) it was 10%. The pest or weed control at 500 g/ha was determined as 75% in experiment [4] (setting [12]); 40% in experiment [4] (setting [14]); 30% in experiment [5] (setting [12]); 20% in experiment [5] (setting [14]); 80% in experiment [6] (setting [12]); 50% in experiment [6] (setting [14]).

As to `CCOC(=O)c1nc(-c2cccc(C(F)(F)F)c2)nc(N)c1Cl` [Compound 107], the “Plant response rating, Pigweed” value in experiment [1] (setting [7]) is reported as 10; in experiment [1] (setting [8]) it was 10; in experiment [1] (setting [9]), 0; in experiment [1] (setting [10]) it was 0. In addition, the “Plant response rating, Foxtail, Giant” value worked out at 0 in experiment [2] (setting [7]), 35 in experiment [2] (setting [8]), 0 in experiment [2] (setting [9]) and 0 in experiment [2] (setting [10]). The “Plant response rating, Crabgrass” value came out at 0 in experiment [3] (setting [7]), 5 in experiment [3] (setting [8]), 0 in experiment [3] (setting [9]) and 5 in experiment [3] (setting [10]). The “Plant response rating, Velvetleaf” value in experiment [4] (setting [7]) is on record as 35; in experiment [4] (setting [8]) it was 65; in experiment [4] (setting [9]), 0; in experiment [4] (setting [10]), 10. Also, the “Plant response rating, Barnyardgrass” value in experiment [5] (setting [7]), in experiment [5] (setting [8]), in experiment [5] (setting [9]) and in experiment [5] (setting [10]) was 0 throughout. Moreover, the “Plant response rating, Morningglory” value in experiment [6] (setting [7]), in experiment [6] (setting [8]), in experiment [6] (setting [9]) and in experiment [6] (setting [10]) was 0 throughout.

In the case of `CCOC(=O)C(O)c1nc(C2CC2)nc(N)c1Br` (stereo not drawn) [Compound 57], the “Plant response rating, Pigweed” value came to 75 in experiment [1] (setting [8]), 95 in experiment [1] (setting [15]), 90 in experiment [1] (setting [10]) and 100 in experiment [1] (setting [16]). Moreover, the “Plant response rating, Foxtail, Giant” value is given as 60 in experiment [2] (setting [8]), 80 in experiment [2] (setting [15]), 10 in experiment [2] (setting [10]) and 70 in experiment [2] (setting [16]). Also, the “Plant response rating, Crabgrass” value in experiment [3] (setting [8]) is 10; in experiment [3] (setting [15]), 30; in experiment [3] (setting [10]) it was 10; in experiment [3] (setting [16]) it was 70. For the same compound, the “Plant response rating, Velvetleaf” value in experiment [4] (setting [8]) is listed as 50; in experiment [4] (setting [15]), 80; in experiment [4] (setting [10]), 80; in experiment [4] (setting [16]) it was 95. The “Plant response rating, Barnyardgrass” value is 25 in experiment [5] (setting [8]), 75 in experiment [5] (setting [15]), 25 in experiment [5] (setting [10]) and 80 in experiment [5] (setting [16]). Besides, the “Plant response rating, Morningglory” value in experiment [6] (setting [8]) is on record as 70; in experiment [6] (setting [15]), 80; in experiment [6] (setting [10]), 100; in experiment [6] (setting [16]), 100.
